Tests used:
Assay type in all cases: in vivo
[1] = tested on: wild buckwheat (Polygonum convululus); experiment: General postemergence herbicidal activity, wild buckwheat; conditions: post-emergence, 336 h, postemergence, after 14 d, 0 = no injury, 100 = complete kill, read-out: POLCO % Visual Injury; for pest or weed control at 70 g/ha: 70 g ai/ha; for pest or weed control at 140 g/ha: 140 g ai/ha; for pest or weed control at 35 g/ha: 35 g ai/ha; for pest or weed control at 280 g/ha: 280 g ai/ha
Procedure: (§1) Seeds or nutlets of the desired test plant species were planted in Sun Gro MetroMix® 360 planting mixture, which typically has a pH of 6.0 to 6.8 and an organic matter content of about 30 percent, in plastic pots with a surface area of 64 square centimeters (cm^2). When required to ensure good germination and healthy plants, a fungicide treatment and/or other chemical or physical treatment was applied. The plants were grown for 7-21 days (d) in a greenhouse with an approximate 15-hour (h) photoperiod which was maintained at about 23-29° C. during the day and 22-28° C. during the night. Nutrients and water were added on a regular basis and supplemental lighting was provided with overhead metal halide 1000-Watt lamps as necessary. The plants were employed for testing when they reached the first or second true leaf stage.
(§2) A weighed amount, determined by the highest rate to be tested, of each test compound was dissolved in 4 mL of a 97:3 volume per volume (v/v) mixture of acetone and dimethyl sulfoxide (DMSO) to obtain concentrated stock solutions. […] The concentrated stock solutions obtained were diluted with 20 mL of an aqueous mixture containing acetone, water, isopropyl alcohol, DMSO, Atplus 411F crop oil concentrate, and Triton X-155 surfactant in a 48.5:39:10:1.5:1.0:0.02 v/v ratio to obtain spray solutions containing the highest application rates. Additional application rates were obtained by serial dilution of 12 mL of the high rate solution into a solution containing 2 mL of 97:3 v/v mixture of acetone and DMSO and 10 mL of an aqueous mixture containing acetone, water, isopropyl alcohol, DMSO, Atplus 411F crop oil concentrate, and Triton X-155 surfactant in a 48.5:39:10:1.5:1.0:0.02 v/v ratio to obtain ½×, ¼×, ⅛× and 1/16× rates of the high rate. Compound requirements are based upon a 12 mL application volume at a rate of 187 liters per hectare (L/ha). Formulated compounds were applied to the plant material with an overhead Mandel track sprayer equipped with 8002E nozzles calibrated to deliver 187 L/ha over an application area of 0.503 square meters (m^2) at a spray height of 18 inches (43 cm) above the average plant canopy height. Control plants were sprayed in the same manner with the solvent blank.
(§3) The treated plants and control plants were placed in a greenhouse as described above and watered by sub-irrigation to prevent wash-off of the test compounds. After 14 d, the condition of the test plants as compared with that of the untreated plants was determined visually and scored on a scale of 0 to 100 percent where 0 corresponds to no injury and 100 corresponds to complete kill.

corn (Zea mays) = experiment: General postemergence herbicidal activity, corn; conditions: post-emergence, 336 h, postemergence, after 14 d, 0 = no injury, 100 = complete kill, read-out: ZEAMX % Visual Injury; for plant injury at 70 g/ha: 70 g ai/ha; for plant injury at 140 g/ha: 140 g ai/ha; for plant injury at 35 g/ha: 35 g ai/ha; for plant injury at 280 g/ha: 280 g ai/ha
Procedure: as §1, §2, §3

[2] = tested on: velvetleaf (Abutilon theophrasti); experiment: General postemergence herbicidal activity, velvetleaf; conditions: post-emergence, 336 h, postemergence, after 14 d, 0 = no injury, 100 = complete kill, read-out: ABUTH % Visual Injury; for pest or weed control at 70 g/ha: 70 g ai/ha; for pest or weed control at 140 g/ha: 140 g ai/ha; for pest or weed control at 35 g/ha: 35 g ai/ha; for pest or weed control at 280 g/ha: 280 g ai/ha
Procedure: as §1, §2, §3

[3] = tested on: lambsquarters (Chenopodium album); experiment: General postemergence herbicidal activity, lambsquarters; conditions: post-emergence, 336 h, postemergence, after 14 d, 0 = no injury, 100 = complete kill, read-out: CHEAL % Visual Injury; for pest or weed control at 70 g/ha: 70 g ai/ha; for pest or weed control at 140 g/ha: 140 g ai/ha; for pest or weed control at 35 g/ha: 35 g ai/ha; for pest or weed control at 280 g/ha: 280 g ai/ha
Procedure: as §1, §2, §3

SMILES: COc1c(Cl)ccc(-c2cc(N)c(Cl)c(C(=O)NOc3ccccc3)n2)c1F [Compound 20, 4-Amino-3-chloro-6-(4-chloro-2-fluoro-3-methoxyphenyl)-N-phenoxypicolinamide]
- pest or weed control at 70 g/ha [1]: 100%
- plant injury at 70 g/ha (corn (Zea mays)): 25%
- pest or weed control at 70 g/ha [2]: 100%
- pest or weed control at 70 g/ha [3]: 95%

SMILES: COc1c(Cl)ccc(-c2cc(N)c(Cl)c(C(=O)NOC(C)(C)C)n2)c1F [Compound 21, 4-Amino-N-tert-butoxy-3-chloro-6-(4-chloro-2-fluoro-3-methoxyphenyl)picolinamide]
- pest or weed control at 140 g/ha [1]: 95%
- plant injury at 140 g/ha (corn (Zea mays)): 0%
- pest or weed control at 140 g/ha [2]: 100%
- pest or weed control at 140 g/ha [3]: 95%

SMILES: COc1c(Cl)ccc(-c2cc(N)c(Cl)c(C(=O)NOCc3ccc(F)cc3)n2)c1F [Compound 22, 4-Amino-3-chloro-6-(4-chloro-2-fluoro-3-methoxyphenyl)-N-(4-fluoro-benzyloxy)picolinamide]
- pest or weed control at 35 g/ha [1]: 100%
- plant injury at 35 g/ha (corn (Zea mays)): 10%
- pest or weed control at 35 g/ha [2]: 100%
- pest or weed control at 35 g/ha [3]: 100%

SMILES: COc1ccc(CONC(=O)c2nc(-c3ccc(Cl)c(OC)c3F)cc(N)c2Cl)cc1 [Compound 23, 4-Amino-3-chloro-6-(4-chloro-2-fluoro-3-methoxyphenyl)-N-(4-methoxy-benzyloxy)picolinamide]
- pest or weed control at 70 g/ha [1]: 100%
- plant injury at 70 g/ha (corn (Zea mays)): 15%
- pest or weed control at 70 g/ha [2]: 100%
- pest or weed control at 70 g/ha [3]: 100%

SMILES: COc1c(Cl)ccc(-c2cc(N)c(Cl)c(C(=O)N(C)O)n2)c1F [Compound 24, 4-Amino-3-chloro-6-(4-chloro-2-fluoro-3-methoxyphenyl)-N-hydroxy-N-methylpicolinamide]
- pest or weed control at 70 g/ha [1]: 80%
- plant injury at 70 g/ha (corn (Zea mays)): 50%
- pest or weed control at 70 g/ha [2]: 90%
- pest or weed control at 70 g/ha [3]: 95%

SMILES: C=CCONC(=O)c1nc(-c2ccc(Cl)c(OC)c2F)nc(N)c1Cl [Compound 25, N-(2-Propenyloxy)-6-amino-5-chloro-2-(4-chloro-2-fluoro-3-methoxyphenyl)pyrimidine-4-carboxamide]
- pest or weed control at 8.75 g/ha ([1]; 8.75 g ai/ha): 100%
- plant injury at 8.75 g/ha (corn (Zea mays); 8.75 g ai/ha): 60%
- pest or weed control at 8.75 g/ha ([2]; 8.75 g ai/ha): 90%
- pest or weed control at 8.75 g/ha ([3]; 8.75 g ai/ha): 100%

SMILES: C=CCON(C)C(=O)c1nc(-c2ccc(Cl)c(OC)c2F)cc(N)c1Cl [Compound 26, N-(2-Propenyloxy)-4-amino-3-chloro-6-(4-chloro-2-fluoro-3-methoxyphenyl)-N-methylpicolinamide]
- pest or weed control at 140 g/ha [1]: 95%
- plant injury at 140 g/ha (corn (Zea mays)): 0%
- pest or weed control at 140 g/ha [2]: 95%
- pest or weed control at 140 g/ha [3]: 100%

SMILES: C=CCONC(=O)c1nc(Cl)cc(N)c1Cl [Compound 27, N-(2-Propenyloxy)-4-amino-3,6-dichloropicolinamide]
- pest or weed control at 280 g/ha [1]: 100%
- plant injury at 280 g/ha (corn (Zea mays)): 0%
- pest or weed control at 280 g/ha [2]: 35%
- pest or weed control at 280 g/ha [3]: 100%

SMILES: C=C(Cl)CONC(=O)c1nc(-c2ccc(Cl)c(OC)c2F)cc(N)c1Cl [Compound 29, 4-Amino-3-chloro-6-(4-chloro-2-fluoro-3-methoxyphenyl)-N-(2-chloro-2-propenyl-oxy)picolinamide]
- pest or weed control at 35 g/ha [1]: 100%
- plant injury at 35 g/ha (corn (Zea mays)): 50%
- pest or weed control at 35 g/ha [2]: 100%
- pest or weed control at 35 g/ha [3]: 100%

SMILES: COc1c(Cl)ccc(-c2cc(N)c(Cl)c(C(=O)NOCC3CC3)n2)c1F [Compound 32, 4-Amino-3-chloro-6-(4-chloro-2-fluoro-3-methoxyphenyl)-N-(cyclopropyl-methoxy)picolinamide]
- pest or weed control at 35 g/ha [1]: 100%
- plant injury at 35 g/ha (corn (Zea mays)): 10%
- pest or weed control at 35 g/ha [2]: 100%
- pest or weed control at 35 g/ha [3]: 100%

SMILES: C=CC(C)ONC(=O)c1nc(-c2ccc(Cl)c(OC)c2F)cc(N)c1Cl (stereo not drawn) [Compound 33, 4-Amino-N-(but-3-en-2-yloxy)-3-chloro-6-(4-chloro-2-fluoro-3-methoxy-phenyl)picolinamide]
- pest or weed control at 70 g/ha [1]: 100%
- plant injury at 70 g/ha (corn (Zea mays)): 10%
- pest or weed control at 70 g/ha [2]: 100%
- pest or weed control at 70 g/ha [3]: 100%

SMILES: Nc1cc(Cl)nc(C(=O)NOCc2ccc(F)cc2)c1Cl [Compound 34, 4-Amino-3,6-dichloro-N-(4-fluorobenzyloxy)picolinamide]
- pest or weed control at 280 g/ha [1]: 100%
- plant injury at 280 g/ha (corn (Zea mays)): 20%
- pest or weed control at 280 g/ha [2]: 65%
- pest or weed control at 280 g/ha [3]: 100%

SMILES: C=CCONC(=O)c1nc(-c2ccc(Cl)c(OC)c2F)nc(N)c1OC [Compound 35, N-(2-Propenyloxy)-6-amino-2-(4-chloro-2-fluoro-3-methoxyphenyl)-5-methoxypyrimidine-4-carboxamide]
- pest or weed control at 140 g/ha [1]: 90%
- plant injury at 140 g/ha (corn (Zea mays)): 20%
- pest or weed control at 140 g/ha [2]: 100%
- pest or weed control at 140 g/ha [3]: 100%

SMILES: C=C(F)CONC(=O)c1nc(-c2ccc(Cl)c(OC)c2F)cc(N)c1Cl [Compound 37, 4-Amino-3-chloro-6-(4-chloro-2-fluoro-3-methoxyphenyl)-N-(2-fluoro-2-propenyl-oxy)picolinamide]
- pest or weed control at 17.5 g/ha ([1]; 17.5 g ai/ha): 100%
- plant injury at 17.5 g/ha (corn (Zea mays); 17.5 g ai/ha): 25%
- pest or weed control at 17.5 g/ha ([2]; 17.5 g ai/ha): 100%
- pest or weed control at 17.5 g/ha ([3]; 17.5 g ai/ha): 100%

SMILES: C=CCCONC(=O)c1nc(-c2ccc(Cl)c(OC)c2F)cc(N)c1Cl [Compound 38, 4-Amino-N-(3-butenyloxy)-3-chloro-6-(4-chloro-2-fluoro-3-methoxyphenyl)picolinamide]
- pest or weed control at 35 g/ha [1]: 100%
- plant injury at 35 g/ha (corn (Zea mays)): 35%
- pest or weed control at 35 g/ha [2]: 100%
- pest or weed control at 35 g/ha [3]: 100%

Source: patent US20130324412A1, “N-ALKOXYAMIDES OF 6-(SUBSTITUTED PHENYL)-4-AMINOPICOLINATES AND 2-(SUBSTITUTED PHENYL)-6-AMINO-4-PYRIMIDINECARBOXYLATES AND THEIR USE AS SELECTIVE HERBICIDES FOR CROPS” (DOW AGROSCIENCES LLC, priority 2009, published 2013)
